Source: patent US11447466B2, “Substituted indole compounds useful as inhibitors of TLR7/8/9” (BRISTOL-MYERS SQUIBB COMPANY, priority 2017, dated 2022)

Experiments:
Type in all cases: cell-based
human TLR7 = target: T1, human TLR7 (Homo sapiens, UniProt Q9NYK1); experiment: TLR7 inhibition reporter assay (HEK-Blue SEAP reporter, gardiquimod stimulation); conditions: HEK-Blue cells overexpressing human TLR7, SEAP reporter, gardiquimod 7.5 μM, 22 hour incubation
T1 construct: host or cells: HEK-Blue cells
T1 sequence (Q9NYK1 27-1049): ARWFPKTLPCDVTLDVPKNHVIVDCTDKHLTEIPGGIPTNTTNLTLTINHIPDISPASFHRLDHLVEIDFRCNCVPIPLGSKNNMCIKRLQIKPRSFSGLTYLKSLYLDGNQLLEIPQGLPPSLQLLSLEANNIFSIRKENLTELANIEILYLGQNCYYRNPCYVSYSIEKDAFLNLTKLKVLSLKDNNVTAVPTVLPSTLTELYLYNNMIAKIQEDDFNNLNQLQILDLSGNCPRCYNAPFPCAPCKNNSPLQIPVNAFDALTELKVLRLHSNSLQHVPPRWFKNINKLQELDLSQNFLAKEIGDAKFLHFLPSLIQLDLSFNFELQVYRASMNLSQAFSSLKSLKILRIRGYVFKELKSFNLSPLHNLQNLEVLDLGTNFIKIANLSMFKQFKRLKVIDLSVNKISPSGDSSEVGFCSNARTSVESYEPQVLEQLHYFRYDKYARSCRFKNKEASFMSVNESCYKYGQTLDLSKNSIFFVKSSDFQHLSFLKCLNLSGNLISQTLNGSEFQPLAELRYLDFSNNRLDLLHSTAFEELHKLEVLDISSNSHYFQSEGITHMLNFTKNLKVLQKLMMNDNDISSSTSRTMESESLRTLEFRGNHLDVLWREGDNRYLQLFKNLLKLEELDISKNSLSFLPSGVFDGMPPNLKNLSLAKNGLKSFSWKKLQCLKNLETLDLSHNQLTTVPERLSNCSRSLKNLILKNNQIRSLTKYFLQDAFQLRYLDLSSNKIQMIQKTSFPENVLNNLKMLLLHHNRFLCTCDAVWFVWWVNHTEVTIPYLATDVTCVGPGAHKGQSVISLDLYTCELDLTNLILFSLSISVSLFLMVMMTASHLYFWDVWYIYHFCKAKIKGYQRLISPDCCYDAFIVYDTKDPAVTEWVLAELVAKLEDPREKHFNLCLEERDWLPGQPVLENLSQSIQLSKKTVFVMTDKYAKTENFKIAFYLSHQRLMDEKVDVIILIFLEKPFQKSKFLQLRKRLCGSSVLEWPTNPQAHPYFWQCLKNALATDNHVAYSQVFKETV
Protocol: (§1) TLR7/8/9 Inhibition Reporter Assays
(§2) HEK-Blue™-cells (Invivogen) overexpressing human TLR7, TLR8 or TLR9 receptors were used for screening inhibitors of these receptors using an inducible SEAP (secreted embryonic alkaline phosphatase) reporter gene under the control of the IFN-β minimal promoter fused to five NF-κB and AP-1-binding sites. Briefly, cells are seeded into Greiner 384 well plates (15000 cells per well for TLR7, 20,000 for TLR8 and 25,000 for TLR9) and then treated with test compounds in DMSO to yield a final dose response concentration range of 0.05 nM-50 μM. After a 30 minute compound pre-treatment at room temperature, the cells are then stimulated with a TLR7 ligand (gardiquimod at a final concentration of 7.5 μM), TLR8 ligand (R848 at a final concentration of 15.9 μM) or TLR9 ligand (ODN2006 at a final concentration of 5 nM) to activate NF-κB and AP-1 which induce the production of SEAP. After a 22 hour incubation at 37° C., 5% CO2, SEAP levels are determined with the addition of HEK-Blue™ Detection reagent (Invivogen), a cell culture medium that allows for detection of SEAP, according to manufacturer's specifications. The percent inhibition is determined as the % reduction in the HEK-Blue signal present in wells treated with agonist plus DMSO alone compared to wells treated with a known inhibitor.

human TLR9 = target: T2, human TLR9 (Homo sapiens, UniProt Q9NR96); experiment: TLR9 inhibition reporter assay (HEK-Blue SEAP reporter, ODN2006 stimulation); conditions: HEK-Blue cells overexpressing human TLR9, SEAP reporter, ODN2006 5 nM, 22 hour incubation
T2 construct: host or cells: HEK-Blue cells
T2 sequence (Q9NR96 26-1032): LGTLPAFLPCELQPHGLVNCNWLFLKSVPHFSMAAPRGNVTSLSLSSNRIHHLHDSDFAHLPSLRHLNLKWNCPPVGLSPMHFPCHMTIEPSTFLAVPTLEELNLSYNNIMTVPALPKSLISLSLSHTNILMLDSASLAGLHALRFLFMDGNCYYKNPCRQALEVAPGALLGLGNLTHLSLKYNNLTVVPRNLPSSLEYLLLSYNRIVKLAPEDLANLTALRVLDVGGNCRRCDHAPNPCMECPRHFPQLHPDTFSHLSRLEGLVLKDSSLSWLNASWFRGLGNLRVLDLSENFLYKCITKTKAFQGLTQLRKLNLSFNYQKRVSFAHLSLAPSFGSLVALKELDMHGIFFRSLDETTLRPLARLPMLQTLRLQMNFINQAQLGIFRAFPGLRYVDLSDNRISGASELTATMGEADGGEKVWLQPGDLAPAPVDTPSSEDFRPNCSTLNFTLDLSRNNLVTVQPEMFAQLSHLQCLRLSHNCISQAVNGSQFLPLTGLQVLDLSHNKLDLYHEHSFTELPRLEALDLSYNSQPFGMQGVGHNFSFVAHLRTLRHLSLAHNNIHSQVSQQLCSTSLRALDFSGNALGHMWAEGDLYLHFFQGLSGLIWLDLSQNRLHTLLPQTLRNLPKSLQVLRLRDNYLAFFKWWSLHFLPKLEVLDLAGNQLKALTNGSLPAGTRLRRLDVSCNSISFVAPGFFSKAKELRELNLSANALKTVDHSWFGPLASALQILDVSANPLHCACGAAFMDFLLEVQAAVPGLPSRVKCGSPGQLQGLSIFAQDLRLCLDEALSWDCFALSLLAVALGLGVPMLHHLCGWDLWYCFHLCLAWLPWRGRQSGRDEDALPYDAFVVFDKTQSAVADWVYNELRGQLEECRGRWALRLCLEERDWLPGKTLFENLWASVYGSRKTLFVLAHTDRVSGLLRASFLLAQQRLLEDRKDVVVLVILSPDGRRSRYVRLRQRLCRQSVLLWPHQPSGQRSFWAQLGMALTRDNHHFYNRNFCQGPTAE
Protocol: as §1, §2

human TLR8 = target: T3, human TLR8 (Homo sapiens, UniProt Q9NR97); experiment: TLR8 inhibition reporter assay (HEK-Blue SEAP reporter, R848 stimulation); conditions: HEK-Blue cells overexpressing human TLR8, SEAP reporter, R848 15.9 μM, 22 hour incubation
T3 construct: host or cells: HEK-Blue cells
T3 sequence (Q9NR97 27-1041): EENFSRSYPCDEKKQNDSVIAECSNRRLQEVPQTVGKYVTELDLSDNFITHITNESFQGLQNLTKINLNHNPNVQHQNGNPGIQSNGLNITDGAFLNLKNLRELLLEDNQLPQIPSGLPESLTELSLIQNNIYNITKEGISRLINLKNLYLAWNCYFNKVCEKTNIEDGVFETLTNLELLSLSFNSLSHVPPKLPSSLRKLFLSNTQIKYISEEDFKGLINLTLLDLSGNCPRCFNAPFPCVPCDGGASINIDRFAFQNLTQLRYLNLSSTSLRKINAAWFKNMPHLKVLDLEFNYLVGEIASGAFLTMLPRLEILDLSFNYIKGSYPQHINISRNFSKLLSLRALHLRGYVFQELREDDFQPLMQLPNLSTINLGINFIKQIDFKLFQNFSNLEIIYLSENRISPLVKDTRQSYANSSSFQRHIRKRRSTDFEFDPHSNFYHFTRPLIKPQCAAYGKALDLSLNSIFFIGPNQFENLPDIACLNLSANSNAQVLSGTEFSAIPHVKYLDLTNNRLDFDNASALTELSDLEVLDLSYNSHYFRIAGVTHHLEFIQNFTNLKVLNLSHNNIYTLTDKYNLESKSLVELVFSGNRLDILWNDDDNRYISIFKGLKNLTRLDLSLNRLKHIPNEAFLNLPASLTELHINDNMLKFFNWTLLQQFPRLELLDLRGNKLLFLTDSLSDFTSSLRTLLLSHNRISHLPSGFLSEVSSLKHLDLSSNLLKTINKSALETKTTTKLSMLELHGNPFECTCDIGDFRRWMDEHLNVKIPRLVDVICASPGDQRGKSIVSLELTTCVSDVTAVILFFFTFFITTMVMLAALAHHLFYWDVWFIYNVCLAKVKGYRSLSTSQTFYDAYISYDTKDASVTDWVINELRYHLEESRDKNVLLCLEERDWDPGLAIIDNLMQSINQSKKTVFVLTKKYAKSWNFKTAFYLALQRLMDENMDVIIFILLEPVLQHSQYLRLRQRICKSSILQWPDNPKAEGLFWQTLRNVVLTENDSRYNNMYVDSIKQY
Protocol: as §1, §2

SMILES	IC50 (human TLR7) [nM]	IC50 (human TLR9) [µM]	IC50 (human TLR8) [nM]
CCCN1CCC(c2ccc3[nH]c(-c4cc(-c5cnn(C)c5)c(=O)n(C)c4)c(C(C)C)c3c2)CC1 [Example 334, 5-(3-isopropyl-5-(1-propylpiperidin-4-yl)-1H-indol-2-yl)-1-methyl-3-(1-methyl-1H-pyrazol-4-yl) pyridin-2(1H)-one]	8.6	0.487	0.8
Cc1c(-c2[nH]c3ccc(C4CCN(C5CCOCC5)CC4)cc3c2C(C)C)nn(C)c(=O)c1C [Example 205, 6-(3-isopropyl-5-(1-(tetrahydro-2H-pyran-4-yl)piperidin-4-yl)-1H-indol-2-yl)-2,4,5-trimethylpyridazin-3(2H)-one]	501	8.71	19.8
Cc1c(-c2[nH]c3ccc(C4CCNCC4)cc3c2C(C)C)cn(C)c(=O)c1-c1cccnc1 [Example 65, 5-(3-isopropyl-5-(piperidin-4-yl)-1H-indol-2-yl)-1,4-dimethyl-[3,3′-bipyridin]-2(1H)-one]	976	3.1	75.1
Cc1cc(-c2[nH]c3ccc(C4CCN(CC(N)=O)CC4)cc3c2C(C)C)cn(C)c1=O [Example 150, 2-(4-(2-(1,5-dimethyl-6-oxo-1,6-dihydropyridin-3-yl)-3-isopropyl-1H-indol-5-yl)piperidin-1-yl)acetamide]	1.2	11.4	4.4
CC(=O)NC1CCC(N2CCC(c3ccc4[nH]c(-c5cc(C)c(=O)n(C)c5)c(C(C)C)c4c3)CC2)CC1 (stereo not drawn) [Example 229, N-(4-(4-(2-(1,5-dimethyl-6-oxo-1,6-dihydropyridin-3-yl)-3-isopropyl-1H-indol-5-yl)piperidin-1-yl)cyclohexyl)acetamide]	5.7	≥ 50	4.2
Cc1c(-c2[nH]c3ccc(C4CCN(CC5CCOCC5)CC4)cc3c2C(C)C)cn(C)c(=O)c1Cl [Example 93, 3-chloro-5-(3-isopropyl-5-(1-((tetrahydro-2H-pyran-4-yl)methyl)piperidin-4-yl)-1H-indol-2-yl)-1,4-dimethylpyridin-2(1H)-one]	5	5.8	4.9
COCCN1CCC(c2ccc3[nH]c(-c4cc(-c5ccc(C)nc5)c(=O)n(C)c4)c(C(C)C)c3c2)CC1 [Example 349, 5-(3-isopropyl-5-(1-(2-methoxyethyl)piperidin-4-yl)-1H-indol-2-yl)-1,6′-dimethyl-[3,3′-bipyridin]-2(1H)-one]	14.5	0.782	72.6
COCCN1CCC(c2ccc3[nH]c(-c4cn(C)c(=O)c(Cl)c4C)c(C(C)C)c3c2)CC1 [Example 95, 3-chloro-5-(3-isopropyl-5-(1-(2-methoxyethyl)piperidin-4-yl)-1H-indol-2-yl)-1,4-dimethylpyridin-2(1H)-one]	7	6.09	7.8
COc1c(C)c(-c2[nH]c3ccc(C4CCN(CC(C)(C)O)CC4)cc3c2C(C)C)cn(C)c1=O [Example 317, 5-(5-(1-(2-hydroxy-2-methylpropyl)piperidin-4-yl)-3-isopropyl-1H-indol-2-yl)-3-methoxy-1,4-dimethylpyridin-2(1H)-one]	19.3	3.58	7.2
CCc1cc(-c2[nH]c3ccc(C4CCNCC4)cc3c2C(C)C)cn(C)c1=O [Example 67, 3-ethyl-5-(3-isopropyl-5-(piperidin-4-yl)-1H-indol-2-yl)-1-methylpyridin-2(1H)-one]	4.3	0.919	5.9
CCCN1CCC(c2ccc3[nH]c(-c4cn(C)c(=O)c(Cl)c4C)c(C(C)C)c3c2)CC1 [Example 242, 3-chloro-5-(3-isopropyl-5-(1-propylpiperidin-4-yl)-1H-indol-2-yl)-1,4-dimethylpyridin-2(1H)-one]	3.2	2.68	5.1
